Laboratory results reported in PubChem BioAssay AID2060906 (Molecular Pharmacology Branch, DTP, NCI, 2025).

Test system: 485176-168-R4-J1-PDC complex spheroid growth
Assay: Anticancer human tumor 485176-168-R4-J1-PDC patient-derived pancreatic adenocarcinoma cell line growth inhibition [RAS]
Conditions: for IC50: curve of first compound; for viability, T/C: stronger effect = lower value
Summary of the method: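 Multi-cell-type spheroids: tumor cells plus HUVEC endothelial cells and mesenchymal stem cells. RAS-pathway inhibitors were combined with targeted agents, each dosed in half-log steps down from clinical Cmax, or from 10 microM when Cmax was unknown.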
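Also: spheroids exposed to compounds for seven days before readout.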
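For viability, T/C in this document: luminescence viability expressed relative to DMSO vehicle wells set as 100%.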

## CC(C)n1nc(-c2ccc3oc(N)nc3c2)c2c(N)ncnc21 + C=CC(=O)N1CCN(c2nc(OCC3CCCN3C)nc3c(F)c(-c4nc(N)cc(C)c4C(F)(F)F)c(Cl)cc23)C(C)C1
Second compound 0.00316 µM
  IC50: 20.1 nM
Second compound 0.01 µM
  IC50: 27.2 nM
Second compound 0.0316 µM
  IC50: 16.6 nM
Second compound 0.1 µM
  IC50: 35.5 nM
Second compound 0.316 µM
  IC50: 21.5 nM
Second compound 1 µM
  IC50: 23.6 nM
Second compound 0.00316 µM, first compound 0.000316 µM
  viability, T/C: 97.2%
Second compound 0.00316 µM, first compound 0.001 µM
  viability, T/C: 92.6%
Second compound 0.00316 µM, first compound 0.00316 µM
  viability, T/C: 84.2%
Second compound 0.00316 µM, first compound 0.01 µM
  viability, T/C: 66.1%
Second compound 0.00316 µM, first compound 0.0316 µM
  viability, T/C: 39.3%
Second compound 0.00316 µM, first compound 0.1 µM
  viability, T/C: 27%
Second compound 0.01 µM, first compound 0.000316 µM
  viability, T/C: 81.8%
Second compound 0.01 µM, first compound 0.001 µM
  viability, T/C: 88.8%
Second compound 0.01 µM, first compound 0.00316 µM
  viability, T/C: 91.8%
Second compound 0.01 µM, first compound 0.01 µM
  viability, T/C: 67.5%
Second compound 0.01 µM, first compound 0.0316 µM
  viability, T/C: 48.6%
Second compound 0.01 µM, first compound 0.1 µM
  viability, T/C: 18.8%
Second compound 0.0316 µM, first compound 0.000316 µM
  viability, T/C: 89.9%
Second compound 0.0316 µM, first compound 0.001 µM
  viability, T/C: 90%
Second compound 0.0316 µM, first compound 0.00316 µM
  viability, T/C: 81.2%
Second compound 0.0316 µM, first compound 0.01 µM
  viability, T/C: 54.7%
Second compound 0.0316 µM, first compound 0.0316 µM
  viability, T/C: 42.3%
Second compound 0.0316 µM, first compound 0.1 µM
  viability, T/C: 23.8%
Second compound 0.1 µM, first compound 0.000316 µM
  viability, T/C: 109%
Second compound 0.1 µM, first compound 0.001 µM
  viability, T/C: 89.5%
Second compound 0.1 µM, first compound 0.00316 µM
  viability, T/C: 84.7%
Second compound 0.1 µM, first compound 0.01 µM
  viability, T/C: 74.5%
Second compound 0.1 µM, first compound 0.0316 µM
  viability, T/C: 56%
Second compound 0.1 µM, first compound 0.1 µM
  viability, T/C: 23.3%
Second compound 0.316 µM, first compound 0.000316 µM
  viability, T/C: 92%
Second compound 0.316 µM, first compound 0.001 µM
  viability, T/C: 78.3%
Second compound 0.316 µM, first compound 0.00316 µM
  viability, T/C: 85.7%
Second compound 0.316 µM, first compound 0.01 µM
  viability, T/C: 62.6%
Second compound 0.316 µM, first compound 0.0316 µM
  viability, T/C: 43.6%
Second compound 0.316 µM, first compound 0.1 µM
  viability, T/C: 30.1%
Second compound 1 µM, first compound 0.000316 µM
  viability, T/C: 81.1%
Second compound 1 µM, first compound 0.001 µM
  viability, T/C: 92.6%
Second compound 1 µM, first compound 0.00316 µM
  viability, T/C: 82%
Second compound 1 µM, first compound 0.01 µM
  viability, T/C: 72%
Second compound 1 µM, first compound 0.0316 µM
  viability, T/C: 42.5%
Second compound 1 µM, first compound 0.1 µM
  viability, T/C: 22.2%

## CCN1CCN(Cc2ccc(Nc3ncc(F)c(-c4cc(F)c5nc(C)n(C(C)C)c5c4)n3)nc2)CC1 + CCn1c(-c2cccnc2C(C)OC)c2c3cc(ccc31)N1CCOC(CC(NC(=O)C(C(C)C)N(C)C(=O)C3(F)CCN(C(=O)C#CC(C)(C)N(C)C)CC3)C(=O)N3CCCC(N3)C(=O)OCC(C)(C)C2)C1
Second compound 0.000949 µM
  IC50: > 1000 nM
Second compound 0.003 µM
  IC50: > 1000 nM
Second compound 0.00949 µM
  IC50: > 1000 nM
Second compound 0.03 µM
  IC50: > 1000 nM
Second compound 0.0949 µM
  IC50: > 1000 nM
Second compound 0.3 µM
  IC50: > 1000 nM
Second compound 0.000949 µM, first compound 0.00316 µM
  viability, T/C: 93.4%
Second compound 0.000949 µM, first compound 0.01 µM
  viability, T/C: 103%
Second compound 0.000949 µM, first compound 0.0316 µM
  viability, T/C: 100%
Second compound 0.000949 µM, first compound 0.1 µM
  viability, T/C: 83.7%
Second compound 0.000949 µM, first compound 0.316 µM
  viability, T/C: 96.5%
Second compound 0.000949 µM, first compound 1 µM
  viability, T/C: 64.5%
Second compound 0.003 µM, first compound 0.00316 µM
  viability, T/C: 92%
Second compound 0.003 µM, first compound 0.01 µM
  viability, T/C: 92.4%
Second compound 0.003 µM, first compound 0.0316 µM
  viability, T/C: 89.6%
Second compound 0.003 µM, first compound 0.1 µM
  viability, T/C: 99.3%
Second compound 0.003 µM, first compound 0.316 µM
  viability, T/C: 74.2%
Second compound 0.003 µM, first compound 1 µM
  viability, T/C: 67.8%
Second compound 0.00949 µM, first compound 0.00316 µM
  viability, T/C: 101%
Second compound 0.00949 µM, first compound 0.01 µM
  viability, T/C: 101%
Second compound 0.00949 µM, first compound 0.0316 µM
  viability, T/C: 94.3%
Second compound 0.00949 µM, first compound 0.1 µM
  viability, T/C: 89.1%
Second compound 0.00949 µM, first compound 0.316 µM
  viability, T/C: 74.5%
Second compound 0.00949 µM, first compound 1 µM
  viability, T/C: 75%
Second compound 0.03 µM, first compound 0.00316 µM
  viability, T/C: 86.2%
Second compound 0.03 µM, first compound 0.01 µM
  viability, T/C: 91%
Second compound 0.03 µM, first compound 0.0316 µM
  viability, T/C: 87.6%
Second compound 0.03 µM, first compound 0.1 µM
  viability, T/C: 72.8%
Second compound 0.03 µM, first compound 0.316 µM
  viability, T/C: 72%
Second compound 0.03 µM, first compound 1 µM
  viability, T/C: 67.4%
Second compound 0.0949 µM, first compound 0.00316 µM
  viability, T/C: 104%
Second compound 0.0949 µM, first compound 0.01 µM
  viability, T/C: 85.2%
Second compound 0.0949 µM, first compound 0.0316 µM
  viability, T/C: 84.4%
Second compound 0.0949 µM, first compound 0.1 µM
  viability, T/C: 75.9%
Second compound 0.0949 µM, first compound 0.316 µM
  viability, T/C: 80%
Second compound 0.0949 µM, first compound 1 µM
  viability, T/C: 74%
Second compound 0.3 µM, first compound 0.00316 µM
  viability, T/C: 80.7%
Second compound 0.3 µM, first compound 0.01 µM
  viability, T/C: 84.4%
Second compound 0.3 µM, first compound 0.0316 µM
  viability, T/C: 73.2%
Second compound 0.3 µM, first compound 0.1 µM
  viability, T/C: 75.2%
Second compound 0.3 µM, first compound 0.316 µM
  viability, T/C: 75.9%
Second compound 0.3 µM, first compound 1 µM
  viability, T/C: 57.4%
